According to patent US20020137929A1, “1 - (3-heterocyclylphenyl) isothiourea, -isourea, -guanidine and -amidine herbicidal agents” (Intellectual Property Department, BASF Aktiengesellschaft, priority 1998, published 2002):

How the values were obtained:
ZEAMX (Corn, Field) = assay: Preemergence herbicidal evaluation; format: in vivo, Zea mays; conditions: rated 4-5 weeks after treatment
In short: (§1)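 Sown cups got a single aqueous acetone spray of test compound (roughly 0.0156–0.500 kg/ha) before seedlings emerged. Evaluation, 4–5 weeks on, used a 0–9 visual scale covering plant stand, vigor, size, malformation, chlorosis and general appearance compared with controls.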

ORYSAT (Rice, Tebonnet) [1] = assay: Preemergence herbicidal evaluation; format: in vivo, Oryza sativa, (L.) Tebonnet; conditions: rated 4-5 weeks after treatment
In short: as §1

CASOB (Sicklepod) = assay: Postemergence herbicidal evaluation; format: in vivo, Cassia obtusifolia; conditions: postemergence
In short: (§2)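 Two-week seedlings sprayed postemergence at 40 psi; formulation: 1:1 acetone/water, 0.5% TWEEN 20; application ≈0.0156–0.500 kg/ha. Greenhouse grow-out, then 0–9 visual scoring at 4–5 weeks.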

CYPIR (Rice Flatsedge) = assay: Preemergence weed control under flooded paddy conditions; format: in vivo, Cyperus iria; conditions: rated 3-4 weeks after treatment
In short: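 Visual injury scored 0-9 against control three to four weeks post-treatment, greenhouse-grown. Application: acetone/water (50/50) solutions dosed directly into flood water (1.5-3 cm over silt loam, planted top 0.5 cm), roughly 0.0313 to 0.500 kg/ha active ingredient.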

[2] = system: GLXMAW (Soybean, Williams); assay: Preemergence herbicidal evaluation; format: in vivo, Glycine max, (L.) Merr. cv Williams; conditions: rated 4-5 weeks after treatment
In short: as §1

MOOVA (Monochoria) = assay: Preemergence weed control under flooded paddy conditions; format: in vivo, Monochoria vaginalis; conditions: rated 3-4 weeks after treatment
In short: (§3)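 Herbicidal effect is scored visually on a 0-9 scale against an untreated control, three to four weeks after compounds are pipetted into the flood water (1.5 to 3 cm deep) over seeds planted in silt loam at 0.5 cm depth. Rates: about 0.0313 to 0.500 kg/ha.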

[3] = system: SAGPY (Arrowhead (Pygmaea)); assay: as above; format: in vivo, Sagittaria pygmaea; conditions: rated 3-4 weeks after treatment
In short: as §3

CYPSE (Flatsedge) = assay: Postemergence weed control under flooded paddy conditions; format: in vivo, Cyperus serotinus; conditions: postemergence weeds, 3-4 weeks after treatment
In short: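 Flood-water application, about 0.0313–0.500 kg/ha a.i. in aqueous/acetone 50/50 v/v; water depth 1.5–3 cm throughout. Weeds 3–5 cm, rice 1.5–2.5 leaf. Greenhouse; 0–9 visual rating vs control at 3–4 wk.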

SETVI (Foxtail, Green) = assay: Preemergence herbicidal evaluation; format: in vivo, Setaria viridis; conditions: rated 4-5 weeks after treatment
In short: as §1

[4] = system: CHEAL (Lambsquarters, Common); assay: Postemergence herbicidal evaluation; format: in vivo, Chenopodium album; conditions: postemergence
In short: as §2

ECHCG (Barnyardgrass) = assay: Postemergence herbicidal evaluation; format: in vivo, Echinochloa crus-galli; conditions: postemergence
In short: as §2

GALAP (Galium) = assay: Preemergence herbicidal evaluation; format: in vivo, Galium aparine; conditions: rated 4-5 weeks after treatment
In short: as §1

ORYSAT (Rice, Tebonnet) [5] = assay: Postemergence herbicidal evaluation; format: in vivo, Oryza sativa, (L.) Tebonnet; conditions: postemergence
In short: as §2

[6] = system: TRZAWR (Wheat, Winter, cv Riband); assay: Preemergence herbicidal evaluation; format: in vivo, Triticum aestivum; conditions: rated 4-5 weeks after treatment
In short: as §1

## CN1C(=O)CSC1=Nc1cc(N2C(=O)C3=C(CCCC3)C2=O)c(F)cc1Cl [Compound 1, N-{4-chloro-2-fluoro-5-[(3-methyl-4-oxo-2-thiazolidinylidene)amino]phenyl}-1-cyclohexene-1,2-dicarboximide]
ZEAMX (Corn, Field); rate 0.0313 kg/ha
  ZEAMX preemergence herbicidal rating: 0.0
ZEAMX (Corn, Field); rate 0.0625 kg/ha
  ZEAMX preemergence herbicidal rating: 0.0
ZEAMX (Corn, Field); rate 0.1250 kg/ha
  ZEAMX preemergence herbicidal rating: 0.0
ZEAMX (Corn, Field); rate 0.2500 kg/ha
  ZEAMX preemergence herbicidal rating: 0.0
ZEAMX (Corn, Field); rate 0.5000 kg/ha
  ZEAMX preemergence herbicidal rating: 2.0
ORYSAT (Rice, Tebonnet) [1]; rate 0.0313 kg/ha
  ORYSAT preemergence herbicidal rating: 0.0
ORYSAT (Rice, Tebonnet) [1]; rate 0.0625 kg/ha
  ORYSAT preemergence herbicidal rating: 0.0
ORYSAT (Rice, Tebonnet) [1]; rate 0.1250 kg/ha
  ORYSAT preemergence herbicidal rating: 2.0
ORYSAT (Rice, Tebonnet) [1]; rate 0.2500 kg/ha
  ORYSAT preemergence herbicidal rating: 3.0
ORYSAT (Rice, Tebonnet) [1]; rate 0.5000 kg/ha
  ORYSAT preemergence herbicidal rating: 6.0
CASOB (Sicklepod); rate 0.0157 kg/ha
  CASOB herbicidal rating: 0.0
CASOB (Sicklepod); rate 0.0313 kg/ha
  CASOB herbicidal rating: 2.0
CASOB (Sicklepod); rate 0.0625 kg/ha
  CASOB herbicidal rating: 4.0
CASOB (Sicklepod); rate 0.1250 kg/ha
  CASOB herbicidal rating: 4.0
CASOB (Sicklepod); rate 0.2500 kg/ha
  CASOB herbicidal rating: 6.0
CASOB (Sicklepod); rate 0.5000 kg/ha
  CASOB herbicidal rating: 7.0
CYPIR (Rice Flatsedge); 0.0313 kg/ha
  Herbicidal rating CYPIR: 2.0
CYPIR (Rice Flatsedge); 0.0625 kg/ha
  Herbicidal rating CYPIR: 7.0
CYPIR (Rice Flatsedge); 0.1250 kg/ha
  Herbicidal rating CYPIR: 9.0
CYPIR (Rice Flatsedge); 0.2500 kg/ha
  Herbicidal rating CYPIR: 9.0
CYPIR (Rice Flatsedge); 0.5000 kg/ha
  Herbicidal rating CYPIR: 9.0
[2]; rate 0.0313 kg/ha
  GLXMAW preemergence herbicidal rating: 0.0
[2]; rate 0.0625 kg/ha
  GLXMAW preemergence herbicidal rating: 2.0
[2]; rate 0.1250 kg/ha
  GLXMAW preemergence herbicidal rating: 2.0
[2]; rate 0.2500 kg/ha
  GLXMAW preemergence herbicidal rating: 4.0
[2]; rate 0.5000 kg/ha
  GLXMAW preemergence herbicidal rating: 3.0
MOOVA (Monochoria); 0.0313 kg/ha
  Herbicidal rating MOOVA: 8.0
MOOVA (Monochoria); 0.0625 kg/ha
  Herbicidal rating MOOVA: 9.0
MOOVA (Monochoria); 0.1250 kg/ha
  Herbicidal rating MOOVA: 9.0
MOOVA (Monochoria); 0.2500 kg/ha
  Herbicidal rating MOOVA: 9.0
MOOVA (Monochoria); 0.5000 kg/ha
  Herbicidal rating MOOVA: 9.0
[3]; 0.0313 kg/ha
  Herbicidal rating SAGPY: 0.0
[3]; 0.0625 kg/ha
  Herbicidal rating SAGPY: 0.0
[3]; 0.1250 kg/ha
  Herbicidal rating SAGPY: 0.0
[3]; 0.2500 kg/ha
  Herbicidal rating SAGPY: 0.0
[3]; 0.5000 kg/ha
  Herbicidal rating SAGPY: 0.0
CYPSE (Flatsedge); rate 0.0313 kg/ha
  Herbicidal rating CYPSE: 0.0
CYPSE (Flatsedge); rate 0.0625 kg/ha
  Herbicidal rating CYPSE: 0.0
CYPSE (Flatsedge); rate 0.1250 kg/ha
  Herbicidal rating CYPSE: 0.0
CYPSE (Flatsedge); rate 0.2500 kg/ha
  Herbicidal rating CYPSE: 1.0
CYPSE (Flatsedge); rate 0.5000 kg/ha
  Herbicidal rating CYPSE: 4.0
SETVI (Foxtail, Green); rate 0.0313 kg/ha
  SETVI preemergence herbicidal rating: 5.0
SETVI (Foxtail, Green); rate 0.0625 kg/ha
  SETVI preemergence herbicidal rating: 9.0
SETVI (Foxtail, Green); rate 0.1250 kg/ha
  SETVI preemergence herbicidal rating: 8.0
SETVI (Foxtail, Green); rate 0.2500 kg/ha
  SETVI preemergence herbicidal rating: 9.0
SETVI (Foxtail, Green); rate 0.5000 kg/ha
  SETVI preemergence herbicidal rating: 8.0
[4]; rate 0.0157 kg/ha
  CHEAL herbicidal rating: 6.0
[4]; rate 0.0313 kg/ha
  CHEAL herbicidal rating: 7.0
[4]; rate 0.0625 kg/ha
  CHEAL herbicidal rating: 7.0
[4]; rate 0.1250 kg/ha
  CHEAL herbicidal rating: 9.0
[4]; rate 0.2500 kg/ha
  CHEAL herbicidal rating: 9.0
[4]; rate 0.5000 kg/ha
  CHEAL herbicidal rating: 9.0
ECHCG (Barnyardgrass); rate 0.0157 kg/ha
  ECHCG herbicidal rating: 0.0
ECHCG (Barnyardgrass); rate 0.0313 kg/ha
  ECHCG herbicidal rating: 0.0
ECHCG (Barnyardgrass); rate 0.0625 kg/ha
  ECHCG herbicidal rating: 2.0
ECHCG (Barnyardgrass); rate 0.1250 kg/ha
  ECHCG herbicidal rating: 2.0
ECHCG (Barnyardgrass); rate 0.2500 kg/ha
  ECHCG herbicidal rating: 5.0
ECHCG (Barnyardgrass); rate 0.5000 kg/ha
  ECHCG herbicidal rating: 7.0
GALAP (Galium); rate 0.0313 kg/ha
  GALAP preemergence herbicidal rating: 9.0
GALAP (Galium); rate 0.0625 kg/ha
  GALAP preemergence herbicidal rating: 7.0
GALAP (Galium); rate 0.1250 kg/ha
  GALAP preemergence herbicidal rating: 9.0
GALAP (Galium); rate 0.2500 kg/ha
  GALAP preemergence herbicidal rating: 9.0
GALAP (Galium); rate 0.5000 kg/ha
  GALAP preemergence herbicidal rating: 8.0
ORYSAT (Rice, Tebonnet) [5]; rate 0.0157 kg/ha
  ORYSAT herbicidal rating: 1.0
ORYSAT (Rice, Tebonnet) [5]; rate 0.0313 kg/ha
  ORYSAT herbicidal rating: 1.5
ORYSAT (Rice, Tebonnet) [5]; rate 0.0625 kg/ha
  ORYSAT herbicidal rating: 3.0
ORYSAT (Rice, Tebonnet) [5]; rate 0.1250 kg/ha
  ORYSAT herbicidal rating: 3.5
ORYSAT (Rice, Tebonnet) [5]; rate 0.2500 kg/ha
  ORYSAT herbicidal rating: 5.5
ORYSAT (Rice, Tebonnet) [5]; rate 0.5000 kg/ha
  ORYSAT herbicidal rating: 5.5
[6]; rate 0.0313 kg/ha
  TRZAWR preemergence herbicidal rating: 2.0
[6]; rate 0.0625 kg/ha
  TRZAWR preemergence herbicidal rating: 4.0
[6]; rate 0.1250 kg/ha
  TRZAWR preemergence herbicidal rating: 3.0
[6]; rate 0.2500 kg/ha
  TRZAWR preemergence herbicidal rating: 6.0
[6]; rate 0.5000 kg/ha
  TRZAWR preemergence herbicidal rating: 6.0
